Measured values taken from publication PMC9064588 (RSC Advances, 2019).

Target: α-glucosidase (Maltase EC 3.2.1.20)
Test: PNPG hydrolysis enzyme inhibition assay, absorbance at […] nm
Format: biochemical

## Oc1cc(O)c2c(c1)O[C@@]1(c3ccc(O)c(O)c3)Oc3cc(O)c4c(c3[C@@H]2[C@H]1O)O[C@H](c1ccc(O)c(O)c1)[C@H](O)C4 [PCA2, Procyanidin A2]
  IC50: 460 ± 10 nM
